Measured values: US10058100B2, “Hydrogen sulfide releasing compounds and their use” (THE UNIVERSITY OF EXETER, priority 2011, dated 2018)
“Also recorded” adds a separate entry of the source.

Tests used:
[1] = tested on: Human brain microvascular endothelial cells (HMEC); test: Prevention of cell death induced by oxidants (SIN-1, H2O2, 4-HNE), Alamar Blue; format: cell-based
HMEC [2] = test: Cell death induced by inhibitors of endogenous H2S synthesis (AOAA, PAG); format: cell-based, human; conditions: FIGS. 5-7, p<0.001
Source text: In the data shown in FIGS. 5 to 7, ###=p<0.001 compared to the control; ***=p<0.001 compared to inhibitors.

HMEC [3] = test: Mitochondrial membrane potential (ΔΨm), tetramethylrhodamine methyl ester; format: cell-based, human; conditions: H2O2, SIN-1 or 4-HNE, FIG. 13
Description: HMEC were incubated with H2S donor compounds for 5 hrs followed by the addition of oxidants SIN-1 (500 μM), H2O2 (50 μM) or […] (10 μM) for 24 hrs. After this time the mitochondria-specific potentiometric dye tetramethylrhodamine methyl ester (200 nM) was added and fluorescence was determined using a Gemini M2e microplate reader (excitation wavelength 548 nm, emission wavelength 573 nm). The method was performed in accordance with the method described by M. Whiteman et al (FASEB J, 2004, 18, 1395-1397).

HMEC [4] = test: Intracellular oxidative stress measurements (DCFDA assay); format: cell-based, human; conditions: for 4-HNE-derived intracellular oxidant species (DCFDA assay): FIGS. 14 and 15; for time dependent increase in intracellular oxidative stress (DCFDA assay): FIG. 15
Description: HMEC were incubated with H2S donor compounds for 5 hrs then H2O2, […] or SIN-1 were added for 2 hrs. Intracellular oxidative stress was then assessed using dichlorofluorescein diacetate (added at a final concentration of 10 μM) and fluorescence detected using a Gemini M2e microplate reader at 37° C. (excitation wavelength, 488 nm, emission wavelength 525 nm). The method was performed in accordance with the method described by M. Whiteman et al (Meths. Mol. Biol., 2008, 476, 29-50).

HMEC [5] = test: Mitochondrial oxidative stress measurements (MitoSox Red); format: cell-based, human; conditions: for mitochondrial superoxide formation induced by 4-HNE (MitoSOX red): 4-HNE 10 μM; for mitochondrial superoxide formation induced by H2O2 (MitoSOX red): H2O2 50 μM, FIG. 17
Description: HMEC were incubated with H2S donor compounds for 5 hrs then the oxidants H2O2, SIN-1 or […] added for 2 hrs. We used a mitochondria-selective oxidant probe MitoSox Red (final concentration, 5 μM) to detect mitochondria-derived oxidant species by fluorescence using a Gemini M2e microplate reader (excitation wavelength 510 nm, emission wavelength, 580 nm). The method was performed in accordance with the method described by M. Whiteman et al (Meths. Mol. Biol., 2008, 476, 29-50) and R. A. Quintanilla et al (J Biol Chem., 2008, 284, 18754-18766).

[6] = tested on: anaesthetised Wistar rats; test: Blood pressure, heart rate and breathing rate of anaesthetised Wistar rats; format: in vivo, rat; conditions: for blood pressure / breathing rate / heart rate: anaesthetised Wistar rats
Description: The mean arterial blood pressure (MAP) of anaesthetised Wistar rats was measured by a pressure transducer in the carotid artery. In ex vivo experiments, effects of AP39 were studied on noradrenaline precontracted rat aortic rings (see below). The single channel properties of intracellular chloride channels from rat heart were studied using the bilayer lipid membrane method (see below).
(§1) The catheter was inserted into the right jugular vein of male wistar rats or male spontaneously hypertensive (SHR) rats so as to reach the right atrium. Anesthesia (ZOLELIT, VIRBAC, 40 mg/kg to leg) and Xylazine 2%. AP39 solutions were prepared in 4 μl DMSO then mixed with 100 μl Krebs solution and immediately applied for 10 sec. (FIGS. 20, 21 and 22).
(§2) Blood pressure, heart rate and breathing rate were all measured at the same time, in accordance with Ling et al., 2008 Circulation 117 2351-2360.

[7] = tested on: spontaneously hypertensive (SHR) rats; test: Blood pressure, heart rate and breathing rate of anaesthetised SHR rats; format: in vivo, rat
Description: as §1, §2

[8] = tested on: adrenaline-precontracted rat aorta; test: Relaxation of adrenaline precontracted rat aortic rings; conditions: AP39 1-5 μM, 200 nmol/l adrenaline, FIG. 23 A-C
Description: (§3) The rings of thoracic aorta (approx. 3-4-mm diameter) or mesenteric artery were prepared from male Wistar rats and were mounted for recording of isometric tension changes in pneumoxid-oxygenated (95% O2:CO2, 37° C.) Krebs-bicarbonate solution as described in Ling et al., 2008 Circulation 117 […]. The aortic ring was pre-contracted with 200 nmol/l adrenaline and the effect of AP39 was evaluated (FIG. 23).

mesenteric arteries = test: Relaxation of adrenaline precontracted rat mesenteric arteries; conditions: AP39 1-5 μM, FIG. 23 D
Description: as §3

[9] = tested on: chloride channels derived from rat heart sarcoplasmic reticulum; test: Single channel properties of chloride channels in bilayer lipid membrane; format: biochemical
Description: Sarcoplasmic reticulum (SR) vesicles, isolated from rat heart, were fused into bilayer lipid membrane separating the cis and trans chambers, and electrical current through the single chloride channel was measured. […] The single channel parameters: Open probability, current-voltage relationship, reversal potential, mean open and close time and single current amplitude were evaluated (FIGS. 24-28).

[10] = target: T1, CAv3.1 T-type calcium channels (Homo sapiens, UniProt O43497); test: T-type calcium channel CAv3.1 whole cell patch-clamp in HEK 293 cells; format: cell-based; conditions: HEK293 cells, concentration and time-dependent, holding potential −100 mV, FIGS. 29-31
T1 construct: expressed in transfected cells; host or cells: HEK 293 cells, permanently transfected
T1 sequence (O43497 whole entry): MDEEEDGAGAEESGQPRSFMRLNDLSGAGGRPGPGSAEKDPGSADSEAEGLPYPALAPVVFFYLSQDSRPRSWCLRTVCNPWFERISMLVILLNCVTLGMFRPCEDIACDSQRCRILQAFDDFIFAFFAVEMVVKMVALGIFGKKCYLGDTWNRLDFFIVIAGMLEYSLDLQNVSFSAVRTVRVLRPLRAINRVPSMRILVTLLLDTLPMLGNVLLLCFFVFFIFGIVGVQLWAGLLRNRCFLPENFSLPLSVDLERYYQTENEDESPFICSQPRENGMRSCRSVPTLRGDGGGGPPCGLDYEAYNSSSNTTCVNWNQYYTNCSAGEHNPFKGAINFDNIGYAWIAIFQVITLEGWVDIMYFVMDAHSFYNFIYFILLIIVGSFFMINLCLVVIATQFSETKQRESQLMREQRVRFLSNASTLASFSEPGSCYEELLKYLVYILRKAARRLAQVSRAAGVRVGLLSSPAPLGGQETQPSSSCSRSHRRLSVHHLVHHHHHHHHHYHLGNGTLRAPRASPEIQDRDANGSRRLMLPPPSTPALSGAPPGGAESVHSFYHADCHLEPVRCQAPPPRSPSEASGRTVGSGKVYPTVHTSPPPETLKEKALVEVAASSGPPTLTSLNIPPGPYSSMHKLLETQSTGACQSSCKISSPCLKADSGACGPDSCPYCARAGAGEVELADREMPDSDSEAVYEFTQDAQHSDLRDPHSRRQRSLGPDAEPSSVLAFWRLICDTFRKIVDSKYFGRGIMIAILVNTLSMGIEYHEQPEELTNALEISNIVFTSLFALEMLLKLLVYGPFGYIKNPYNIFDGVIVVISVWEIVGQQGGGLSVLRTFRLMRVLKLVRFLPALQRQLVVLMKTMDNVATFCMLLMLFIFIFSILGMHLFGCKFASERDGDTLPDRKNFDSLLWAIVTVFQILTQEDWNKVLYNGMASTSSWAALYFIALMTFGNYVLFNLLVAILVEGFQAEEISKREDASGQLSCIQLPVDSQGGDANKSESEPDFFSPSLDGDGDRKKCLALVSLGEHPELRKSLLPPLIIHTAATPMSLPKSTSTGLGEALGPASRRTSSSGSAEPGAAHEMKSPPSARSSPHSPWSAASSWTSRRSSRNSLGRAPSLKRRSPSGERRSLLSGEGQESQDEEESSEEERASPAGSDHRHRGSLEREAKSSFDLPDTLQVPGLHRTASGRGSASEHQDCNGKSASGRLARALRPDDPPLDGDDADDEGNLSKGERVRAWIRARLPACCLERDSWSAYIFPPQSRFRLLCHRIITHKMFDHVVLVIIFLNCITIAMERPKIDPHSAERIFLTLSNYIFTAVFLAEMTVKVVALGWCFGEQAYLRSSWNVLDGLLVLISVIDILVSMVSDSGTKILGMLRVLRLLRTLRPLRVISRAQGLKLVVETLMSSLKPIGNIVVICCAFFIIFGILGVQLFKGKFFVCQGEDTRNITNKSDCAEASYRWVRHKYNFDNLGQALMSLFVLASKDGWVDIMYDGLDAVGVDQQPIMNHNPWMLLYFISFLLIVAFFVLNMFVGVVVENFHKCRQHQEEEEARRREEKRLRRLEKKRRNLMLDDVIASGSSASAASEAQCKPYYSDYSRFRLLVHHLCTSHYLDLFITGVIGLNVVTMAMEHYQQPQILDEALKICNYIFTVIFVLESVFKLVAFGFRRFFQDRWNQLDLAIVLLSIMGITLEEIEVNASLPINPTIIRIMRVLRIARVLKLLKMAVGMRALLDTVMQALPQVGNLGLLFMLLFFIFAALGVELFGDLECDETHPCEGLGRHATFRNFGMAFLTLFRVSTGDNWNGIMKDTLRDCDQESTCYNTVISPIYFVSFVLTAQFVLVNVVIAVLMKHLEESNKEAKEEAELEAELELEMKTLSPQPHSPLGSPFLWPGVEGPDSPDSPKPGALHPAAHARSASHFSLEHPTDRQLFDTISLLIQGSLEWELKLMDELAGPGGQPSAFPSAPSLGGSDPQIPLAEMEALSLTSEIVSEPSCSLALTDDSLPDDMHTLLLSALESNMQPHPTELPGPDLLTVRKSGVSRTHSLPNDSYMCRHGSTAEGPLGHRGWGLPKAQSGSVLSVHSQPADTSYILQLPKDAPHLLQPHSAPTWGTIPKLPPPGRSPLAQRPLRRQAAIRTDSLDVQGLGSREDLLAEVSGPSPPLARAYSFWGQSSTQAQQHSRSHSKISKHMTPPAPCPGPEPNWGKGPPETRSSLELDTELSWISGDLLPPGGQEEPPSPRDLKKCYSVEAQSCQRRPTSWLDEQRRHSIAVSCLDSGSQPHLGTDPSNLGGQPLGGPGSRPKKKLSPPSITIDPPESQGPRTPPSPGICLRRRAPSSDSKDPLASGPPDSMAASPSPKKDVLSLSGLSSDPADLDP
Description: CAv3.1 calcium channels were permanently transfected in human embryonic kidney (HEK 293) cells and the calcium currents were measured by a patch-clamp method in the whole cell configuration, from a holding potential −100 mV.
The effect of four different concentrations of AP39 on the current through a Cav3.1 channel was tested (FIGS. 29-31).

peroxiredoxin 3 (Prx3) = test: Western blot of mitochondrial peroxiredoxin 3 oxidation in THP-1 cells; format: cell-based, human
Description: Human THP-1 (monocytic) cells were exposed to an oxidative stress inducing agent (hydrogen peroxide; H2O2, 25 μM) in the presence or absence of the mitochondria-targeted H2S donor AP39.
In the experiment resulting in FIG. 32, the human THP-1 (monocytic) cells were exposed to 25 μM H2O2 for 4 hours in the absence or presence of different concentrations of AP39 (given in μM).
In the experiment resulting in FIG. 33, the human THP-1 (monocytic) cells were exposed to different concentrations of AP39 (given in μM) for 4 hours followed by the addition of 25 μM H2O2 for 1 minute.
In both experiments, after these time periods the levels of native mitochondrial matrix protein peroxiredoxin 3 (Prx3) (dimer, molecular weight 37 kDa) and over-oxidised Prx3 (monomer, molecular weight 25 kDa) were determined by standard western blotting procedures (M Whiteman et al (FASEB J, 2004, 18, 1395-1397) (FIGS. 32 and 33).

[11] = tested on: transcription factor Nrf2; test: Nrf2 activation, luciferase reporter in AREc32 cells; format: cell-based, human; conditions: FIG. 34
Description: Nrf2 activation was studied in AREc32 cells. This stable cell line is derived from MCF-7 cells transfected with a construct containing eight copies of the rat glutathione-S-transferase-A2 Antioxidant Response […] Element (ARE) and the SV40 promoter sequence upstream of a firefly luciferase reporter gene (Wang, X. J. et al., 2006, Cancer Res, 66, 10983-94). […] After 4 h the treatments were removed and the cells were treated with sulforaphane (12.5 μM), an Nrf2-activator and positive control, for 24 hrs. Nrf-2 activation (luciferase activity) was then assessed by luminescence with a BMG labtech Omega microplate reader (FIG. 34). Data are expressed as fold induction of luciferase activity normalised to cell biomass (sulforhodamine B).

inflammasome [12] = test: Inhibition of inflammasome activation (LPS/ATP), IL-1β ELISA in THP-1 cells; format: cell-based, human; conditions: AP39 with LPS 1 μg/ml 24 hrs, then ATP 5 mM 24 hrs, FIG. 35
Description: (§4) Human THP-1 cells were cultured in RPMI medium and incubated with AP39 and bacterial endotoxin (lipopolysaccharide; LPS) (1 μg/ml) for 24 hrs, followed by ATP (5 mM) for an additional 24 hrs. After this time cell culture media was collected and inflammasome activation determined by measuring IL-10 levels in the culture media by commercial ELISA (Human IL-1 beta ELISA Ready-SET-Go, eBioscience) (FIG. 35). Data are mean+/−standard deviation (n=3).

inflammasome [13] = test: Inhibition of inflammasome activity once inflammasome is activated, IL-1β ELISA in THP-1 cells; format: cell-based, human; conditions: LPS 24 hrs, then ATP and AP39 24 hrs, FIG. 36
Description: as §4, with “exposed to” for “incubated with AP39 and”, “mM) and AP39” for “mM)”, “for” for “for an additional”, “activity” for “activation”, “IL-1β” for “IL-10”, “36).” for “35).”

cancer = conditions: in vitro and in vivo; cited from earlier work
[14] = 1.6 μM/kg and 2.7 μM/kg AP39 injected, FIG. 20
[15] = Wistar or SHR rats, Na2S, summary statement, dose not given

Which results are given for `O=C(CCCCCCCCC[P+](c1ccccc1)(c1ccccc1)c1ccccc1)Oc1ccc(-c2cc(=S)ss2)cc1.[Br-]` [AP39]?
H2O2-induced cytotoxicity [1]: inhibited; SIN-1 and 4-HNE induced cell death [1]: significantly inhibited; cell death induced by 4-HNE [1]: significantly inhibited; cell death induced by SIN-1 [1]: significantly inhibited; concentration mediating inhibition of cell death, mitochondrial dysfunction and oxidative stress [1]: 50 to 200 nM; AOAA, PAG and AOAA/PAG induced cell death (HMEC [2]; AP39 100 nM): significantly inhibited; oxidant-induced mitochondrial membrane potential (Δψm) collapse (HMEC [3]; AP39 100 nM): inhibition; 4-HNE-derived intracellular oxidant species (DCFDA assay) (HMEC [4]; AP39 100 nM): significantly reduced; also recorded: significantly decreased; time dependent increase in intracellular oxidative stress (DCFDA assay) (HMEC [4]; pretreatment with AP39 100 nM): reduced; mitochondrial superoxide formation induced by 4-HNE (MitoSOX red) (HMEC [5]; AP39 0.1 μM, FIGS. 16 and 18): significantly reduced; lower concentration than GYY4137 for reduction of mitochondrial superoxide (HMEC [5]; AP39 0.1 μM versus GYY4137 100 μM): 1,000 fold; mitochondrial superoxide formation induced by H2O2 (MitoSOX red) (HMEC [5]; AP39 0.1 μM): reduced; blood pressure [6, 14]: reduced; breathing rate [6, 14]: transiently increased; heart rate [6, 14]: reduced; blood pressure ([6]; AP39 4 μM/kg, FIG. 22): sustained blood pressure (A) and heart rate (B) lowering effects; heart rate ([6]; AP39 4 μM/kg, FIG. 22): sustained blood pressure (A) and heart rate (B) lowering effects; effectiveness relative to Na2S at influencing blood pressure, heart rate and breathing rate ([6]; rats, FIGS. 20 to 22): 10-50 times; blood pressure ([7]; SHR rats, 1.5 μM/kg AP39 injected, FIG. 21): Sustained blood pressure lowering effects; heart rate ([7]; hypertensive (SHR) rats, AP39, summary statement): reducing; vasodilatory effect on adrenaline-precontracted rat aorta [8]: vasodilatory effects; vasodilatory effect on adrenaline-precontracted mesenteric arteries (mesenteric arteries): vasodilatory effects; mean open time of the channel ([9]; AP39 20 μmol/l, 0 mV, control 11 ms, FIG. 27): 33 ms; amplitude of the electrical current through the single chloride channels ([9]; AP39 20 and 40 μM, 0 mV, FIGS. 24 and 25): increased; channel open probability ([9]; FIGS. 24-28): increased; mean chloride channel open time, concentration dependence ([9]; concentration dependent manner, FIG. 28): increased; conductance of chloride channels ([9]; control channel 125 pS, FIG. 26): increased; Cl−/K+ channel permeability ratio ([9]; control ratio 9.6, FIG. 26): did not influence; channel reversal potential ([9]; with AP39, control ~−31 mV, FIG. 26): ~−31 mV; concentration of AP39 inhibiting CAv3.1 T-type calcium channels [10]: > 300 nM; Prx3 oxidation by H2O2 (peroxiredoxin 3 (Prx3); 5 μM AP39 for 4 hours then 25 μM H2O2 for 1 minute, FIG. 33): reduced; levels of the over-oxidised monomeric form of Prx3 (peroxiredoxin 3 (Prx3); 25 μM H2O2, increasing concentrations of AP39, FIGS. 32 and 33): reduced; Nrf2 transcription factor activation (luciferase activity) ([11]; AREc32 cells, AP39 6.25 μM pre-treatment 4 h): activates; potency at inducing Nrf2 activation compared with GYY4137 ([11]; equimolar concentrations (6.25 μM)): more potent; IL-1β levels in the cell culture media (inflammasome activation) (inflammasome [12]): reduced; inflammasome activity after activation by LPS/ATP (IL-1β levels) (inflammasome [13]): inhibited

What does the source list for `[Na+].[Na+].[S-2]` [Na2S, reference compound]?
blood pressure ([6]; 3 μM/kg Na2S injected, FIG. 20): no effect; also recorded: not observed; breathing rate ([6]; 3 μM/kg Na2S injected, FIG. 20): no effect; heart rate ([6]; 3 μM/kg Na2S injected, FIG. 20): no effect; also recorded: not observed; blood pressure [7, 15]: did not reduce blood pressure; heart rate [7, 15]: did not decrease heart rate

Which “AOAA, PAG and AOAA/PAG induced cell death” value (HMEC [2]; GYY4137 100 μM) does the source give for “morpholin-4-ium 4-methoxyphenyl(morpholino) phosphinodithioate [GYY4137, reference compound]” here?
Its value is “significantly inhibited”.

What about the “oxidant-induced mitochondrial membrane potential (Δψm) collapse” value (HMEC [3]; GYY4137 100 μM) of the same molecule?
The value was “inhibition”.

What about the “4-HNE-derived intracellular oxidant species (DCFDA assay)” value (HMEC [4]; GYY4137 100 μM) of the same molecule?
Its value is “significantly reduced; also recorded: significantly decreased”.

What about the “time dependent increase in intracellular oxidative stress (DCFDA assay)” value (HMEC [4]; pretreatment with GYY4137 100 μM) of the same molecule?
The value was “reduced”.

What about the “mitochondrial superoxide formation induced by 4-HNE (MitoSOX red)” value (HMEC [5]; GYY4137 100 μM, FIG. 16) of the same molecule?
Its value is “reduced”.

And the “mitochondrial superoxide formation induced by H2O2 (MitoSOX red)” value (HMEC [5]; GYY4137 100 μM)?
Its value is “reduced”.

What about the anti-cancer effects (cancer) of the same molecule?
The anti-cancer effects was “anti-cancer effects”.
